{
  "source": "paper PMC5432571",
  "about": "(Frontiers in Molecular Neuroscience, 2017)",
  "key": {"[1]": {"system": "ClC-K kidney Cl− channels", "set-up": "method as in Zifarelli et al., 2010", "conditions": "biphasic: activates at low concentrations; ref Zifarelli et al., 2010; cited from earlier work"}, "G254A-α1 GlyR": {"biological_target": "T1, G254A-α1 GlyR (Homo sapiens, UniProt P23415, G282A)", "T1 construct": "expressed in transfected cells; host or cells: CHO cells", "T1 sequence (P23415 29-449 isoform P23415-2 G282A limits assumed)": "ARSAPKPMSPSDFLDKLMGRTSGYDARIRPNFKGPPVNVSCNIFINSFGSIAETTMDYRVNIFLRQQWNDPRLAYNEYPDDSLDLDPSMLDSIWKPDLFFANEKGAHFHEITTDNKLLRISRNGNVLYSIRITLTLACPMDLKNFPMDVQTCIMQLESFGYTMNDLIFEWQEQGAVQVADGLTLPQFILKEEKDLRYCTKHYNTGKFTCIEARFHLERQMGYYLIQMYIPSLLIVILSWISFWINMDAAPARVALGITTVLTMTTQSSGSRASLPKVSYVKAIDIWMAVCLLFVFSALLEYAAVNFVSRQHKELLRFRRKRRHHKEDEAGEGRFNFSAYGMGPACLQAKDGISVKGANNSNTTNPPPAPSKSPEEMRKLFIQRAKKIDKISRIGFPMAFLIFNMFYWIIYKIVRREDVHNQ", "assay": "Whole-cell patch-clamp of glycine-induced currents, G254A-α1 GlyR mutant expressed in CHO cells", "format": "cell-based", "conditions": "for inhibition at 30 µM / inhibition at 100 µM / inhibition at 300 µM: CHO, long application protocol, read-out: inhibition of G254A-α1 GlyR mediated currents; for inhibition at 30 µM: NFA 30 μM; for inhibition at 100 µM: NFA 100 μM; for inhibition at 300 µM: NFA 300 μM", "procedure": "(§1) The experiments were carried out on cultured Chinese hamster ovary (CHO) cells obtained from the American Type Tissue Culture Collection (ATCC, Molsheim, France) that were maintained in culture conditions as previously described (Mukhtarov et al., [2013]; Maleeva et al., [2015]).\n(§2) One day before transfection, cells were plated on the cover slips (12 mm in diameter) and placed inside 35-mm cell culture dishes with 2 ml of medium. Transfection was performed using the Lipofectamine 3000 protocol (Life Technology, USA). To facilitate identification of transfected cells a green fluorescent protein (GFP) was added to the transfection mixture. For expression of functional heteromeric receptors, cells were simultaneously transfected with cDNAs of α and β subunits in the ratio 1:10. Three hours after the initial exposure of cells to the cDNAs the culture medium was replaced with that containing strychnine (1 μM), which prevents spontaneous activation of GlyRs. Electrophysiological recordings were performed in the fluorescent cells 24–72 h after transfection.\n(§3) Whole-cell and outside-out recordings were performed at room temperature (20–25°C) using an EPC-9 amplifier (HEKA Elektronik, Germany). Cells were continuously superfused with external solution containing (mM): NaCl 140, CaCl2 2, KCl 2.8, MgCl2 4, HEPES 20, glucose 10; pH 7.4; 320–330 mOsm. Intracellular solution used for filling recording patch pipettes contained (mM): CsCl 140, CaCl2 6, MgCl2 2, MgATP 2, NaGTP 0.4, HEPES/CsOH 10, BAPTA (tetrapotassium salt) 2; pH 7.3; 290 mOsm. Two different protocols of solutions application were used in this study. […] A “ramp protocol” implies the gradual change of Vhold alternately from −80 to +80 mV and from +80 to −80 mV during 1 s, Vhold was fixed at −80 or +80 mV at the beginning and at the end of the ramp for 500 ms (Figure 2B).\n(§4) Recording pipettes were pulled from borosilicate glass capillaries (Harvard Apparatus Ltd, USA) and had resistances of 5–10 MOhm. For the rapid replacement of the solutions, the fast application system was used. Three parallel rectangular tubes (100 × 100 μm) were positioned 40–50 μm above the recorded cell. The movement of the tubes was controlled by a computer-driven fast exchange system (SF 77A Perfusion Fast-Step, Warner, USA) allowing a 10–90% solution exchange in 3–5 ms, as measured by open electrode controls (1/10 external solution/water). Cells with low input resistance (<150 MOhm) and a rapid run-down (>30% with repetitive application) were excluded from analysis.\n(§5) Electrophysiological recordings were performed using PatchMaster (HEKA Electronic, Germany) software.\nThe fractional electrical distance from the external side of the membrane (δ) at which bound NFA blocked the current was calculated using the Woodhull equation: IC50(V)=IC50(0) exp (−δFV/RT), where IC50(V) is IC50 at the given membrane potential, IC50(0) – at 0 mV, V – membrane potential and F, R, T have their usual meanings. δ was determined from a plot of IC50 values against membrane potential."}, "α1β GlyR": {"biological_target": "T2, α1β GlyR (Homo sapiens, UniProt P23415+P48167)", "T2 construct": "expressed in transfected cells; host or cells: CHO cells", "T2 sequence (P23415 29-449 isoform P23415-2 limits assumed)": "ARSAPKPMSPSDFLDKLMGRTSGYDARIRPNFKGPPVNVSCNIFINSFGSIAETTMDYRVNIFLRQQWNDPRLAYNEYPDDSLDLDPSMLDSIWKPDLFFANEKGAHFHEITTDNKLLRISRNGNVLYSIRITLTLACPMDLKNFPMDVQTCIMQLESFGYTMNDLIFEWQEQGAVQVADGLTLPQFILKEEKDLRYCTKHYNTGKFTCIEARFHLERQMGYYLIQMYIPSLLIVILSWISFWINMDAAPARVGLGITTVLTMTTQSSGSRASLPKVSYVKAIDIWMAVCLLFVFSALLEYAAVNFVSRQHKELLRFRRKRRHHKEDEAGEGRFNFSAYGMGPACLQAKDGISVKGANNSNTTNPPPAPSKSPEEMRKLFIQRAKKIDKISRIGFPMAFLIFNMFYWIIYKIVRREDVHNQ", "T2 sequence (P48167 23-497)": "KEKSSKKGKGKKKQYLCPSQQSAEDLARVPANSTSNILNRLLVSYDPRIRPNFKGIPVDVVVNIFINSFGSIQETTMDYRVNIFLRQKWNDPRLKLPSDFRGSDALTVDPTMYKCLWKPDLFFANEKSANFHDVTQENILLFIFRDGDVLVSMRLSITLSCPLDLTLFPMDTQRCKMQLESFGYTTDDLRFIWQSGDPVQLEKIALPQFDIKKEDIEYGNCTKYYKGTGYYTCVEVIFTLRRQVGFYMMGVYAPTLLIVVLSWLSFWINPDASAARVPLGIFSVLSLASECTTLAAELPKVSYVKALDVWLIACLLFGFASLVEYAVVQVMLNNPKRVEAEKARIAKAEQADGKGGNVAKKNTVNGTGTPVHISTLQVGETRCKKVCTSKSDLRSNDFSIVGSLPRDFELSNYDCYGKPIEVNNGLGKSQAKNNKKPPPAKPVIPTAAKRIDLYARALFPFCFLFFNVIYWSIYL", "assay": "Whole-cell patch-clamp of glycine-induced currents, heteromeric α1β GlyR expressed in CHO cells", "format": "cell-based", "conditions": "glycine 30 μM", "procedure": "as §1, §2, §3, §4, §5"}},
  "note": "Where two headings read alike, the source gives them in different places.",
  "data": [
    {"smiles": "O=C(O)c1cccnc1Nc1cccc(C(F)(F)F)c1", "note": "[NFA, Niflumic acid]", "values": [
      {"measurement": "concentrations at which NFA blocks the channels", "setting": "[1]", "result": "> 1", "unit": "mM"},
      {"measurement": "IC50", "setting": "G254A-α1 GlyR; +30 mV, glycine 30 μM, representative, read-out: NFA IC50 (representative IC50 curve)", "result": 92, "unit": "µM"},
      {"measurement": "IC50", "setting": "G254A-α1 GlyR; +30 mV, glycine 100 μM, representative, read-out: NFA IC50 (representative IC50 curve)", "result": 106, "unit": "µM"},
      {"measurement": "IC50", "setting": "G254A-α1 GlyR; +80 mV, glycine 30 μM, ramp protocol, mean ± SEM, read-out: IC50 of NFA", "result": "64 ± 10", "unit": "µM"},
      {"measurement": "IC50", "setting": "G254A-α1 GlyR; +80 mV, glycine 30 μM, representative, read-out: NFA IC50 (representative IC50 curve)", "result": 68, "unit": "µM"},
      {"measurement": "IC50", "setting": "G254A-α1 GlyR; +80 mV, glycine 100 μM, representative, read-out: NFA IC50 (representative IC50 curve)", "result": 57, "unit": "µM"},
      {"measurement": "inhibition at 30 µM", "setting": "G254A-α1 GlyR; Vhold +30 mV, glycine 30 μM", "result": "23 ± 7", "unit": "%"},
      {"measurement": "inhibition at 30 µM", "setting": "G254A-α1 GlyR; Vhold −30 mV, glycine 30 μM", "result": "22 ± 4", "unit": "%"},
      {"measurement": "inhibition at 100 µM", "setting": "G254A-α1 GlyR; Vhold +30 mV, glycine 30 μM", "result": "43 ± 10", "unit": "%"},
      {"measurement": "inhibition at 100 µM", "setting": "G254A-α1 GlyR; Vhold −30 mV, glycine 30 μM", "result": "34 ± 6", "unit": "%"},
      {"measurement": "inhibition at 300 µM", "setting": "G254A-α1 GlyR; Vhold +30 mV, glycine 30 μM", "result": "76 ± 4", "unit": "%"},
      {"measurement": "inhibition at 300 µM", "setting": "G254A-α1 GlyR; Vhold −30 mV, glycine 30 μM", "result": "52 ± 11", "unit": "%"},
      {"measurement": "IC50", "setting": "G254A-α1 GlyR; MP +80 mV, increased agonist concentration (glycine 100 μM), mean ± SEM, read-out: IC50 of NFA", "result": "58 ± 8", "unit": "µM"},
      {"measurement": "IC50", "setting": "G254A-α1 GlyR; at negative potentials, glycine 30 μM, ramp protocol, mean ± SEM, read-out: IC50 of NFA", "result": "257 ± 25", "unit": "µM"},
      {"measurement": "level of the NFA binding site from the extracellular side", "setting": "G254A-α1 GlyR; both examined agonist concentrations, Woodhull analysis", "result": "~ 30%"},
      {"measurement": "Fractional electrical distance (δ) from the extracellular side of the membrane", "setting": "G254A-α1 GlyR; glycine 30 μM, Woodhull analysis", "result": "0.37 ± 0.04 (n = 9)"},
      {"measurement": "Fractional electrical distance (δ) from the extracellular side of the membrane", "setting": "G254A-α1 GlyR; glycine 100 μM, Woodhull analysis", "result": "0.30 ± 0.04 (n = 7)"},
      {"measurement": "Hill coefficient (nH) of NFA interaction", "setting": "G254A-α1 GlyR; membrane potential 30 mV, glycine 30 μM", "result": "1.3 ± 0.08"},
      {"measurement": "Hill coefficient (nH) of NFA interaction", "setting": "G254A-α1 GlyR; membrane potential 50 mV, glycine 30 μM", "result": "1.36 ± 0.11"},
      {"measurement": "Hill coefficient (nH) of NFA interaction", "setting": "G254A-α1 GlyR; membrane potential 70 mV, glycine 30 μM", "result": "1.26 ± 0.1"},
      {"measurement": "Hill coefficient (nH) of NFA interaction", "setting": "G254A-α1 GlyR; membrane potential 80 mV, glycine 30 μM", "result": "1.22 ± 0.09"},
      {"measurement": "Hill coefficient (nH) of NFA interaction", "setting": "G254A-α1 GlyR; membrane potential −50 mV, glycine 30 μM", "result": "1.37 ± 0.18"},
      {"measurement": "Hill coefficient (nH) of NFA interaction", "setting": "G254A-α1 GlyR; membrane potential −70 mV, glycine 30 μM", "result": "1.34 ± 0.1"},
      {"measurement": "Hill coefficient (nH) of NFA interaction", "setting": "G254A-α1 GlyR; membrane potential −80 mV, glycine 30 μM", "result": "1.46 ± 0.16"},
      {"measurement": "IC50", "setting": "G254A-α1 GlyR; −30 mV, glycine 30 μM, representative, read-out: NFA IC50 (representative IC50 curve)", "result": 185, "unit": "µM"},
      {"measurement": "IC50", "setting": "G254A-α1 GlyR; −30 mV, glycine 100 μM, representative, read-out: NFA IC50 (representative IC50 curve)", "result": 190, "unit": "µM"},
      {"measurement": "IC50", "setting": "G254A-α1 GlyR; −80 mV, glycine 30 μM, representative, read-out: NFA IC50 (representative IC50 curve)", "result": 230, "unit": "µM"},
      {"measurement": "IC50", "setting": "G254A-α1 GlyR; −80 mV, glycine 100 μM, representative, read-out: NFA IC50 (representative IC50 curve)", "result": 260, "unit": "µM"},
      {"measurement": "IC50", "setting": "α1β GlyR; +30 mV, representative, read-out: NFA IC50 (representative IC50 curve)", "result": 152, "unit": "µM"},
      {"measurement": "IC50", "setting": "α1β GlyR; +80 mV, mean ± SEM, read-out: IC50 of NFA", "result": "150 ± 14", "unit": "µM"},
      {"measurement": "IC50", "setting": "α1β GlyR; +80 mV, representative, read-out: NFA IC50 (representative IC50 curve)", "result": 144, "unit": "µM"},
      {"measurement": "IC50", "setting": "α1β GlyR; −30 mV, representative, read-out: NFA IC50 (representative IC50 curve)", "result": 200, "unit": "µM"},
      {"measurement": "IC50", "setting": "α1β GlyR; −80 mV, representative, read-out: NFA IC50 (representative IC50 curve)", "result": 191, "unit": "µM"}
    ]}
  ]
}
